Read-outs that look alike come from different tables or passages of the source.
What was measured:
Experiment in all cases: whole plant or invertebrate
Format in all cases: in vivo
Plutella xylostella = settings: Plutella xylostella, read-out: Plutella xylostella Mortality (%) 500 ppm
Protocol: (1) Insecticidal Activity on 2nd-Instar Larvae of Plutella xylostella.
Plutella xylostella (L.) is a lepidoptera pest with a chewing mouthpart and is a common vegetable pest. The 2nd-instar larvae of Plutella xylostella were used as test objects and tested by using a leaf immersion feeding method.
(§1) Operation process: Samples were weighed accurately, and respectively added with 200 μL of dimethyl sulfoxide to prepare 10 g/L mother liquor which was diluted into a concentration of 500 ppm with an aqueous solution containing 0.05% of Tween-80 during the test. A hole puncher with a diameter of 1.0 cm was used to make cleaned cabbage leaves into leaf discs. The leaf discs were immersed in a liquid medicine, taken out after 5 seconds, air-dried naturally, and transferred into a clean vessel. About 35 2nd-instar larvae of Plutella xylostella were put into the vessel and fed at a constant temperature of 28° C. Each concentration was repeated 3 times, and an aqueous solution containing 0.05% of Tween-80 was used as a control group. After being treated for 24 hours, a number of dead Plutella xylostella was counted, and a mortality (%) was calculated according to a formula that mortality (%)=(number of live larvae in the control group−number of treated live larvae)/number of live larvae in the control group*100%.

Aphis craccivora = settings: Aphis craccivora, read-out: Aphis craccivora Mortality (%) 500 ppm
Protocol: (3) Insecticidal Activity on Aphid Adults.
Aphid is a homoptera pest with a piercing-sucking mouthpart and is a common vegetable pest. Aphis craccivora were taken as test objects and tested by using an impregnation method.
Operation process: Samples were weighed accurately, and respectively added with 200 μL of dimethyl sulfoxide to prepare 10 g/L mother liquor which was diluted into a concentration of 500 ppm with an aqueous solution containing 0.05% of Tween-80 during the test. After the wingless Aphis craccivora adults stably sucked on bean sprouts, the wingless Aphis craccivora adults together with the bean sprouts were immersed into a liquid medicine with a concentration of 500 ppm, taken out after 5 seconds, air-dried naturally, transferred into a clean vessel, and fed at a constant temperature of 23° C. Each concentration was repeated 3 times, and an aqueous solution containing 0.05% of Tween-80 was used as a control group. After being treated for 24 hours, a number of dead Aphis craccivora was counted, and a mortality (%) was calculated according to a formula that mortality (%)=(number of live Aphis craccivora in the control group−number of treated live Aphis craccivora)/number of live Aphis craccivora in the control group*100%.

Spodoptera exigua = settings: Spodoptera exigua, read-out: Spodoptera exigua Mortality (%) 500 ppm
Protocol: (2) Insecticidal Activity on 2nd-Instar Larvae of Spodoptera exigua.
Spodoptera exigua is a lepidoptera pest with a chewing mouthpart and is a common vegetable pest. The 2nd-instar larvae of Spodoptera exigua were used as test objects and tested by using a leaf immersion feeding method.
as §1, with “μL,” for “μL”, “2nd -instar” for “2nd-instar”, “Spodoptera exigua” for “Plutella xylostella”, “group −number” for “group−number”, “group * 100%.” for “group*100%.”

Solenopsis invicta = settings: Solenopsis invicta, water test tube poison-feeding
Protocol: (4) Insecticidal Activity on Solenopsis invicta.
As a hymenoptera pests and a social insect, Solenopsis invicta is one of the most destructive invasive organisms. Solenopsis invicta were used as test objects and tested by using a water test tube poison-feeding method.
Operation process: Samples were weighed accurately, and respectively added with 200 μL of dimethyl sulfoxide to prepare 10 g/L mother liquor which was diluted into a concentration of 100 ppm with a mixed aqueous solution containing 0.05% of Tween-80 and 5% of honey during the test. […] The raising test tube was placed in a raising box horizontally, and a small amount of ham sausages were added to the raising test tube as food to raise the Solenopsis invicta at a constant temperature of 25° C. After being treated for 24 hours and 72 hours, a number of live Solenopsis invicta and a number of dead Solenopsis invicta were counted, and a mortality (%) was calculated according to a formula that mortality (%)=(number of live Solenopsis invicta in the control group−number of treated live Solenopsis invicta)/number of live Solenopsis invicta in the control group*100%.

[1] = 24 h, read-out: Solenopsis invicta Mortality (%) 100 ppm 24 h, 100 ppm, 24 h
[2] = 72 h, read-out: Solenopsis invicta Mortality (%) 100 ppm 72 h, 100 ppm, 72 h

Row | SMILES | mortality at 500 ppm (Plutella xylostella; 500 ppm, 2nd-instar larvae, leaf immersion feeding) | mortality at 500 ppm (Aphis craccivora; 500 ppm, wingless adults, impregnation method, 24 hours) | mortality at 500 ppm (Spodoptera exigua; 500 ppm, 2nd-instar larvae, leaf immersion feeding, 24 hours) | mortality at 100 ppm (Solenopsis invicta; 24 h, 100 ppm, 24 h, read-out: Solenopsis invicta Mortality (%) 100 ppm 24 h) | mortality at 100 ppm (Solenopsis invicta; 72 h, 100 ppm, 72 h, read-out: Solenopsis invicta Mortality (%) 100 ppm 72 h) | mortality at 500 ppm (Plutella xylostella) | mortality at 500 ppm (Aphis craccivora; 24 h) | mortality at 500 ppm (Spodoptera exigua; 24 h) | mortality at 100 ppm (Solenopsis invicta; [1]) | mortality at 100 ppm (Solenopsis invicta; [2])
1 | COC(=O)Nc1cc2n(n1)-c1cnccc1C(F)(CC(F)(F)F)N2 (stereo not shown) [Compound A40] | 96% | 100% | 100% | 20% | 97% | – | – | – | – | –
2 | CNC(=O)Nc1cc2n(n1)-c1cnccc1C(F)(CC(F)(F)F)N2 (stereo not shown) [Compound A41] | – | – | – | – | – | 100% | 100% | 100% | 24% | 100%
3 | CS(=O)(=O)Nc1cc2n(n1)-c1cnccc1C(F)(CC(F)(F)F)N2 (stereo not shown) [Compound A42] | – | – | – | – | – | 100% | 100% | 100% | 44% | 100%
4 | C=CC1(CCl)Nc2c(Br)c(C#N)nn2-c2c(Cl)cc(C(F)(F)F)cc21 (stereo not shown) [Compound C5] | – | – | – | – | – | 100% | 100% | 100% | 34% | 100%
5 | C=CC1(CC(F)(F)F)Nc2c(Br)c(C#N)nn2-c2c(Cl)cc(C(F)(F)F)cc21 (stereo not shown) [Compound C6] | – | – | – | – | – | 100% | 100% | 100% | 44% | 100%
6 | C=CC1(C(F)(F)F)Nc2c(Br)c(C#N)nn2-c2c(Cl)cc(C(F)(F)F)cc21 (stereo not shown) [Compound C7] | – | – | – | – | – | 100% | 100% | 100% | 38% | 100%
7 | C=CC1Nc2c(Br)c(C#N)nn2-c2c(Cl)cc(C(F)(F)F)cc21 (stereo not shown) [Compound C8] | – | – | – | – | – | 91% | 95% | 85% | 36% | 92%
8 | C=CC1(C(F)(F)F)Nc2c(-c3ccccc3C(F)(F)F)c(C#N)nn2-c2c(Cl)cc(C(F)(F)F)cc21 (stereo not shown) [Compound C11] | – | – | – | – | – | 100% | 100% | 100% | 46% | 100%
9 | C=CC1(C(F)(F)F)Nc2c(-c3cc(C)oc3C)c(C#N)nn2-c2c(Cl)cc(C(F)(F)F)cc21 (stereo not shown) [Compound C12] | – | – | – | – | – | 100% | 100% | 91% | 18% | 95%
10 | C=CC1Nc2c([S+]([O-])C(F)(F)F)c(C#N)nn2-c2c(Cl)cc(C(F)(F)F)cc21 (stereo not shown) [Compound C16] | – | – | – | – | – | 100% | 99% | 95% | 23% | 89%
11 | C=CC1(CCl)Nc2c([S+]([O-])CC)c(C#N)nn2-c2c(Cl)cc(C(F)(F)F)cc21 (stereo not shown) [Compound C17] | – | – | – | – | – | 88% | 100% | 89% | 15% | 68%
12 | C=CC1(CCl)Nc2c([S+](C)[O-])c(C(C)=O)nn2-c2c(Cl)cc(C(F)(F)F)cc21 (stereo not shown) [Compound C19] | – | – | – | – | – | 90% | 100% | 90% | 18% | 70%
13 | C=CC1(CC#N)Nc2c([S+]([O-])CC)c(C#N)nn2-c2c(Cl)cc(C(F)(F)F)cc21 (stereo not shown) [Compound C21] | – | – | – | – | – | 90% | 100% | 95% | 19% | 99%
14 | C=CC1(CC#N)Nc2c([S+](C)[O-])c(C#N)nn2-c2c(Cl)cc(C(F)(F)F)cc21 (stereo not shown) [Compound C22] | – | – | – | – | – | 99% | 89% | 94% | 20% | 70%
15 | C=CC1(CC#N)Nc2c([S+](C)[O-])c(C(C)=O)nn2-c2c(Cl)cc(C(F)(F)F)cc21 (stereo not shown) [Compound C23] | – | – | – | – | – | 86% | 95% | 88% | 18% | 80%
16 | CC(=O)c1nn2c(c1[S+](C)[O-])NC(CO)(CC#N)c1cc(C(F)(F)F)cc(Cl)c1-2 (stereo not shown) [Compound C27] | – | – | – | – | – | 76% | 100% | 86% | 27% | 86%
17 | N#CCC1(CBr)Nc2c([S+]([O-])C(F)(F)F)c(C#N)nn2-c2c(Cl)cc(C(F)(F)F)cc21 (stereo not shown) [Compound C28] | – | – | – | – | – | 100% | 100% | 100% | 30% | 98%
18 | CNC(=O)C1(CC#N)Nc2c([S+]([O-])C(F)(F)F)c(C#N)nn2-c2c(Cl)cc(C(F)(F)F)cc21 (stereo not shown) [Compound C33] | – | – | – | – | – | 100% | 100% | 100% | 36% | 100%
19 | CN1CCN(C(=O)C2(CC#N)Nc3c([S+]([O-])C(F)(F)F)c(C#N)nn3-c3c(Cl)cc(C(F)(F)F)cc32)CC1 (stereo not shown) [Compound C34] | – | – | – | – | – | 100% | 100% | 100% | 40% | 100%
20 | COC(=O)CC1(C(=O)OC)c2cc(C(F)(F)F)cc(Cl)c2-n2nc(C#N)c([S+]([O-])C(F)(F)F)c2N1C (stereo not shown) [Compound C39] | – | – | – | – | – | 90% | 98% | 100% | 24% | 87%
21 | CC(=O)c1nn2c(c1[S+](C)[O-])NC(CBr)(CC#N)c1cc(C(F)(F)F)cc(Cl)c1-2 (stereo not shown) [Compound C41] | – | – | – | – | – | 89% | 100% | 94% | 19% | 90%
22 | CNCC1(CC#N)Nc2c([S+](C)[O-])c(C(C)=O)nn2-c2c(Cl)cc(C(F)(F)F)cc21 (stereo not shown) [Compound C42] | – | – | – | – | – | 91% | 100% | 94% | 20% | 70%
23 | COC(=O)C1(CC#N)Nc2c([S+](C)[O-])c(C(C)=O)nn2-c2c(Cl)cc(C(F)(F)F)cc21 (stereo not shown) [Compound C44] | – | – | – | – | – | 90% | 100% | 100% | 36% | 90%

— patent publication US11401271B2, “Fused heterocyclic compound, pyrazole-ring-containing fused heterocyclic compound, agricultural composition containing thereof, and method of using the composition” (SOUTH CHINA AGRICULTURAL UNIVERSITY, priority 2017, dated 2022)
